The refractive index is the speed of light in vacuum divided by its phase velocity in the sample. Usually mass density stands for mass per unit of volume. One may read the vapor or sublimation pressure as the equilibrium pressure above the liquid or solid.

The values below come from the NIST ThermoML archive (doi:10.1016/j.fluid.2007.10.016).

Numbers after ± are expanded uncertainties.

The nature of data set [1]: refractive index (Na D-line) (dimensionless). Conditions: 298.15 K; 101.33 kPa; Liquid; Standard Abbe refractometry.
The conditions of data set [2]: Liquid; for mass density: 298.15 K, 101.33 kPa; for vapor or sublimation pressure: Ebulliometric method (Recirculating still).

Take `CC(C)CC(C)(C)C` [2,2,4-trimethylpentane]: the refractive index in data set [1] turned out to be 1.38894 ± 0.00072. Also, the mass density in data set [2] stood at 687.79 ± 0.41 kg/m3. Further, the “vapor or sublimation pressure” value stood at 25.47 ± 0.14 kPa in data set [2] (330 K) and 36.64 ± 0.19 kPa in data set [2] (340 K).

As for `CC(=O)C(C)C` [3-methyl-2-butanone], the refractive index in data set [1] was determined as 1.3862 ± 0.00072. Besides, the mass density in data set [2] came to 799.55 ± 0.45 kg/m3. In addition, the results for the “vapor or sublimation pressure” value in data set [2] (330 K) and in data set [2] (340 K) were 27.69 ± 0.16 kPa and 40.45 ± 0.2 kPa, respectively.

Consider `CC(C)O` [propan-2-ol], for which the refractive index in data set [1] was 1.37504 ± 0.00072. The mass density in data set [2] was found to be 780.91 ± 0.31 kg/m3. The “vapor or sublimation pressure” value in data set [2] (330 K) is 33.25 ± 0.19 kPa; in data set [2] (340 K), 52.97 ± 0.26 kPa.
